Experimental findings from US20020137676A1, “Selective treatment of endothelial somatostatin receptors” (priority 1998, published 2002) are described below.

Common to all, as to assay type: cell-based, human
Experiment [1] has as its system ECV304 cells. The experiment can be described thus: Actin cytoskeleton visualised with fluorescently labelled phalloidin. Particulars: 10 nM, 37° C. for 30 min. The procedure: (§1) The cells were subsequently incubated at 37° C. for 30 min, fixed in 4% PFA for 5 min and washed in PBS. The actin cytoskeleton was visualized by incubating the cells with ALEXA-488 conjugated phalloidin (1:50, Molecular Probes Inc., Eugene, Oreg.) for 15 min at room temperature. Cells were screened using a Zeiss Axiophot microscope as previously described. Similar protocols were used to evaluate the effects SSTR1 selective ligands on endothelial cells.

In experiment [2] the test system is Na/H exchanger on ECV304 cells. The experiment can be described thus: Intracellular pH imaging of the Na/H exchanger.
Experiment [3] relates to ECV304 cells. Briefly: ECV304/Matrigel in vitro angiogenesis model (capillary-like tube formation). Particulars: sub-micromolar and higher concentrations; ECV304 on Matrigel. From the text: In one aspect, the present invention utilises an established model system for assaying the effect of SSTR ligands on human angiogenesis. In one embodiment, the model system comprises the spontaneously transformed human umbilical vein endothelial cell line, ECV304, grown on a Matrigel substrate (Hughes, 1996, Experimental Cell Research 225:171-185). Matrigel is a solubilized basement membrane extract that promotes the differentiation of endothelial cells into capillary tube-like structures in vitro. It has been shown that cytoskeletal reorganization occurs when human umbilical vein endothelial cells undergo the morphological changes associated with neovascular tube formation on a Matrigel substrate (Grant et al., 1991, In Vitro Cell Dev. Biol. 27A(4):327-36.). […] This assay can also be used to identify […] ligands that stimulate the process of angiogenesis. […]
ECV304 cells (3.5×10^4 in 0.5 mL complete M199 medium) were placed onto 24-well plates that were pre-coated with 0.125 mL of Matrigel (Becton-Dickinson). […] After 24 hours, images of tube-formation were recorded on film. Images were converted into a digital format using a Hewlett-Packard ScanJet 4C/T scanner, the summed length of capillary-like tubes was quantified using Optimas 6.1 image analysis software (Optimas Corp.).

The test system of another experiment is ECV304 or HUVEC cells. The experiment can be described thus: Actin cytoskeleton effects of SSTR selective ligands on endothelial cells. As to the method:
as §1

Ends that are not written are not given here.

For the substance “Somatostatin-14 (AGCKNFFWKTFTSC; ends and bridges not checked; cysteine pairing not given here; UniProt P61278 103-116, looked up) [SS14, native 14 amino acid form of somatostatin, an endogenous cyclic peptide; agonist of all somatostatin receptor subtypes]”, in the experiment with ECV304 cells [1], the actin stress fibres result is given as “loss of long stress fibers”; the “lamellipodia at the plasma membrane” value is “increase in the number and size of lamellipodia”. In addition, the “effect on Na/H exchanger” value in experiment [2] is recorded as “inhibit”. In addition, in the experiment with ECV304 cells [3], the “inhibition of neovascular growth” value is reported as “significantly inhibit neovascular growth”.
With “des-AA^1,2,5 [DTrp^8,IAamp^9]SS [SSTR1 '499 agonist]”, in the experiment on ECV304 or HUVEC cells, the actin stress fibres result is listed as “decrease in stress fibres” and the lamellipodia formation result is reported as “increase in lamellipodia formation”.
